{
  "source": "paper PMC7497086",
  "about": "“Fluorophore‐Labeled Cyclic Nucleotides as Potent Agonists of Cyclic Nucleotide‐Regulated Ion Channels” (Chembiochem, 2020)",
  "assay_type_in_all_cases": "biochemical",
  "key": {"[1]": {"target": "T1, Heterotetrameric CNGA2:A4:B1b channels (Rattus norvegicus, UniProt A0A8I5ZN27+Q00195+Q64359)", "T1 construct": "expressed in transfected cells; host or cells: Xenopus laevis oocytes injected with cRNA (CNGA2:CNGA4:CNGB1b at 2:1:1)", "T1 sequence (Q64359 whole entry, one chain of several)": "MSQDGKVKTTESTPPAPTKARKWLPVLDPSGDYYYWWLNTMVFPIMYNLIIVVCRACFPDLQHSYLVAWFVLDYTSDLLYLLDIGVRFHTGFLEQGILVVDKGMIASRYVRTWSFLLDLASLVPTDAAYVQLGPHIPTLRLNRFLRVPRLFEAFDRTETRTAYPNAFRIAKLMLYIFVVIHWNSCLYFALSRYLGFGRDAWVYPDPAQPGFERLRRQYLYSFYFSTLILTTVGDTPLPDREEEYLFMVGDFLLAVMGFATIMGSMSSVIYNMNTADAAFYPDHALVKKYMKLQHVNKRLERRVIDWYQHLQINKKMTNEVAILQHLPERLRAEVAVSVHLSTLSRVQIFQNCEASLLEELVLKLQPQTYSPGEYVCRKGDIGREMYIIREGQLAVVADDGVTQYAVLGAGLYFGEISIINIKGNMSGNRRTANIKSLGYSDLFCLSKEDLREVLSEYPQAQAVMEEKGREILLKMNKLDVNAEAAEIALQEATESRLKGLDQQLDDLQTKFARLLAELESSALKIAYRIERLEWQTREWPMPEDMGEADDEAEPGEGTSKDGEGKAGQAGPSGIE", "T1 sequence (A0A8I5ZN27 1-858 isoform A0A8I5ZN27-2, one chain of several)": "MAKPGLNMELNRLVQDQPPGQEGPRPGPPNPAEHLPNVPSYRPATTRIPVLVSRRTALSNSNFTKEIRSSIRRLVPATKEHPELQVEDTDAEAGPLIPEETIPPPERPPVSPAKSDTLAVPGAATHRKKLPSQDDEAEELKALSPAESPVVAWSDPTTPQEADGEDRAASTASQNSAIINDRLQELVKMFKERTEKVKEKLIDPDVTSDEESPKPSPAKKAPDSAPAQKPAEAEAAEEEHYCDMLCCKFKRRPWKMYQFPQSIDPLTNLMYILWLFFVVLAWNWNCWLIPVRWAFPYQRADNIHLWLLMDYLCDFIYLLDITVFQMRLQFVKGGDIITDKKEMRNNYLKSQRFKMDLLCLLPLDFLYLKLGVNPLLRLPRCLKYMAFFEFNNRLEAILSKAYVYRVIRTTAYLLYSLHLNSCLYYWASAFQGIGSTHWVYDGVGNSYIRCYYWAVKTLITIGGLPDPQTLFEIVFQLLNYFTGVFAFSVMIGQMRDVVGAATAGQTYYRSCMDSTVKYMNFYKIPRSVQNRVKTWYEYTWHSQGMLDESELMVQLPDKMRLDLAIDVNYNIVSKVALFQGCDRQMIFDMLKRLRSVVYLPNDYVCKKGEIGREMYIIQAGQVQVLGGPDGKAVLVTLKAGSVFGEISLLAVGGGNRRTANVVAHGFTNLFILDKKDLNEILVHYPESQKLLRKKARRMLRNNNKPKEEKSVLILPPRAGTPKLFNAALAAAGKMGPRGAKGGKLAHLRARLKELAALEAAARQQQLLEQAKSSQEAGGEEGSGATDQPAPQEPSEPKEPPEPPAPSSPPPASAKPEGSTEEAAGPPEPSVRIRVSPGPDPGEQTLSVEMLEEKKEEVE", "assay": "Patch-clamp activation of heterotetrameric olfactory CNGA2:A4:B1b channels, inside-out patches of Xenopus oocytes", "conditions": "inside-out patches, +10 mV", "description": "First, the effect of the compounds on olfactory CNG channels with natural composition was tested. […] To determine the potency of the ligands, full concentration‐activation relationships were generated. These relationships were fitted with Equation 1 (Experimental Section), yielding the concentration of half maximum activation (EC 50) and the Hill coefficient (H a).\n(§1) Molecular biology and heterologous expression of CNG and HCN channels: The subunits CNGA2 (accession No. AF126808), CNGA4 (accession no. U12623) and CNGB1b (accession no. AF068572) of rat olfactory channels as well as mouse HCN2 channels (NM008226) were subcloned in front of the T7 promoter of pGEMHEnew. The corresponding cRNAs were produced with the mMESSAGE mMACHINE T7 Kit (Ambion, Austin, TX, USA).\n(§2) Oocytes at stages IV and V were injected with 50–130 ng cRNA encoding either CNGA2, CNGA2 : CNGA4 : CNGB1b (2 : 1 : 1 ratio) or HCN2 channels either manually or mediated by an injection robot (RoboInject®). The injected oocytes were incubated at 18 °C for up to 6 days in Barth's medium containing (in mM) 84 NaCl, 1 KCl, 2.4 NaHCO3, 0.82 MgSO4, 0.41 CaCl2, 0.33 Ca(NO3)2, 7.5 TRIS, cefuroxime (4.0 μg/mL) and penicillin/streptomycin (100 μg/mL), pH 7.4.\n(§3) Electrophysiology: Macroscopic currents were recorded in inside‐out patches of the oocytes expressing hundreds to several thousand of the desired channels by using the patch‐clamp technique. The patch pipettes were pulled from quartz tubing (P‐2000, Sutter Instrument, Novato, USA) with an outer and inner diameter of 1.0 and 0.7 mm (VITROCOM, New Jersey, USA). The corresponding pipette resistance was 0.9–2.3 MΩ. The bath and pipette solution contained (in mM): 150 KCl, 1 EGTA, 20 HEPES (pH 7.4) for CNG channel measurements. For HCN channel measurements the bath solution contained (in mM): 100 KCl, 10 EGTA, 10 HEPES (pH 7.2) and the pipette (in mM) 120 KCl, 10 HEPES, 1 CaCl2 (pH 7.2). All experiments were performed at room temperature by using an Axopatch 200B amplifier (Axon Instruments, Foster City, CA, USA). Electrophysiology was controlled by the Patchmaster‐software (HEKA Elektronik Dr. Schulze GmbH, Lambrecht, Germany). The sampling rate was 5 kHz and the filter implemented in the amplifier (4‐pole Bessel) was set to 2 kHz. Measurements in HCN2 channels were started 3.5 minutes after patch excision, to minimize run down phenomena.18 The solutions with the different ligand concentrations to be studied were applied by a multi‐barrel device to the patches with a flow rate of 0.8 to 1.2 mL/min. The concentration of the fluorescent ligands was verified by UV/Vis spectroscopy.\n(§4) where I is the actual current amplitude and I max the maximum current amplitude at saturating concentration of each cyclic nucleotide. EC 50 is the ligand concentration generating half maximum current and H a the respective Hill coefficient."}, "[2]": {"target": "T2, Homotetrameric CNGA2 channels (Rattus norvegicus, UniProt Q00195)", "T2 construct": "expressed in transfected cells; host or cells: Xenopus laevis oocytes injected with CNGA2 cRNA", "T2 sequence (Q00195 1-664)": "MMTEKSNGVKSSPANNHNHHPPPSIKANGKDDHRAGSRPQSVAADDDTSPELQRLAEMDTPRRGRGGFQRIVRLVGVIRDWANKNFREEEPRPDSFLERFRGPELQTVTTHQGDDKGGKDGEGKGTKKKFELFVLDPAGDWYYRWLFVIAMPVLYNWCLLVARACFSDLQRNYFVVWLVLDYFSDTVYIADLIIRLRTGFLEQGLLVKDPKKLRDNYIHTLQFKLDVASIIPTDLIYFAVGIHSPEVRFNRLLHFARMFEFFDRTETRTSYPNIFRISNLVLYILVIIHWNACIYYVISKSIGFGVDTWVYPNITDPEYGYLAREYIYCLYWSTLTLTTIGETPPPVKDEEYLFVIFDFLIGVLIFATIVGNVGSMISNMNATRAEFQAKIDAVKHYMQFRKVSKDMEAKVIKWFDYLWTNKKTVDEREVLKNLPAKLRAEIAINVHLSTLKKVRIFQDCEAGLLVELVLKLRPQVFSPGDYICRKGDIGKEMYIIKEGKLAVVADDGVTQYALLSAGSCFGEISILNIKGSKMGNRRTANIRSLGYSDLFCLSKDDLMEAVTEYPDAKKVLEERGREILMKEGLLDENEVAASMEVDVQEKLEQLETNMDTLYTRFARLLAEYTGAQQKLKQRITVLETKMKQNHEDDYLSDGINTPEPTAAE", "assay": "Patch-clamp activation of homotetrameric CNGA2 channels, inside-out patches of Xenopus oocytes", "excerpt": "Moreover, we studied the effect of the nucleotide derivatives on homotetrameric CNGA2 channels.\nas §1, §2, §3, §4"}, "[3]": {"target": "T3, heterotetrameric olfactory CNG channels (Rattus norvegicus, UniProt A0A8I5ZN27+Q00195+Q64359)", "T3 construct": "expressed in transfected cells; host or cells: Xenopus laevis oocytes injected with cRNA (CNGA2:CNGA4:CNGB1b at 2:1:1)", "T3 sequence (Q64359 whole entry, one chain of several)": "as the sequence (Q64359 whole entry, one chain of several) above", "T3 sequence (A0A8I5ZN27 1-858 isoform A0A8I5ZN27-2, one chain of several)": "as the sequence (A0A8I5ZN27 1-858 isoform A0A8I5ZN27-2, one chain of several) above", "assay": "Confocal patch-clamp fluorometry (cPCF): ligand binding and activation, heterotetrameric CNG channels", "conditions": "Figure 4A", "excerpt": "(§5) As expected from the above data, the binding profile of 10 was similar for the two different types of ion channels, yielding similar BC 50 and H b values.\n(§6) Confocal patch‐clamp fluorometry: Ionic current and binding of the fluorescent ligand in macropatches were simultaneously measured by cPCF as described before.2a, 2b The patch pipettes were pulled from borosilicate glass tubing with an outer and inner diameter of 2.0 and 1.0 mm (Hilgenberg GmbH, Malsfeld, Germany). After fire polishing, the corresponding pipette resistance was 0.7–1.2 MΩ. The bath and pipette solution contained (in mM): 150 KCl, 1 EGTA, 5 HEPES (pH 7.4) for CNG channel measurements. To distinguish the fluorescence of the unbound fluorescent ligand from that of the bound fluorescent ligands, the fluorescent dye DY647 was added to the bath solution at a concentration of 5 μM. The fluorescent ligand and DY647 were excited at 543 and 633 nm, respectively, with a HeNe laser system and an AchroGate beam splitter. Fluorescence intensity from the bath and pipette solution were normalized on each other and the surplus of the green fluorescence of the patch dome with respect to the red fluorescence was used to quantify the bound ligands. The actual relative fluorescence (F) was normalized in each patch with respect to the maximum relative fluorescence (F max) at a saturating concentration of the fluorescent ligand. […]"}, "[4]": {"target": "T4, homotetrameric olfactory CNG channels (Rattus norvegicus, UniProt Q00195)", "T4 construct": "expressed in transfected cells; host or cells: Xenopus laevis oocytes injected with CNGA2 cRNA", "T4 sequence (Q00195 1-664)": "T2 sequence (Q00195 1-664)", "assay": "Confocal patch-clamp fluorometry (cPCF): ligand binding and activation, homotetrameric CNG channels", "conditions": "Figure 4B", "excerpt": "as §5, §6"}, "[5]": {"conditions": "unit only in the axis title [10] (μM)"}},
  "data": [
    {"smiles": "CC1(C)C2=C3C=C4C5=[N+](CCC4OC3CCN2c2ccc(CC(=O)NCCCCCc3ccc(Sc4nc6c(=O)[nH]c(N)nc6n4[C@@H]4O[C@@H]6COP(=O)(O)O[C@H]6[C@H]4O)cc3)cc21)c1ccc(S(=O)(=O)[O-])cc1C5(C)C", "note": "(stereo partly drawn) [Compound 10]", "values": [
      {"measurement": "H a (Hill coefficient of activation)", "setting": "[1]", "value": "2.32±0.16"},
      {"measurement": "EC50", "setting": "[1]; concentration of half maximum activation", "value": "630 ± 20", "unit": "nM"},
      {"measurement": "EC 50 (in words)", "setting": "[2]", "value": "nanomolar range"},
      {"measurement": "H a (Hill coefficient of activation)", "setting": "[2]; inside-out patches", "value": "4.03±0.12"},
      {"measurement": "EC50", "setting": "[2]; inside-out patches, concentration of half maximum activation", "value": "650 ± 10", "unit": "nM"},
      {"measurement": "Hb (Hill coefficient of binding, cPCF)", "setting": "[3]", "value": 1.55},
      {"measurement": "EC50", "setting": "[3]; [5]", "value": "1.03 ± 0.04", "unit": "µM"},
      {"measurement": "Hb (Hill coefficient of binding, cPCF)", "setting": "[4]", "value": 1.43},
      {"measurement": "EC50", "setting": "[4]; [5]", "value": "1.17 ± 0.07", "unit": "µM"}
    ]}
  ]
}
